Test results taken from patent publication US10577315B2, “Compositions and methods for treatment of prostate carcinoma” (Pellficure Pharmaceuticals, Inc., priority 2014, dated 2020).

Columns and labels:
Format in all cases: cell-based
[1] = system: PTEN-P2/GFP prostate cancer cells; experiment: Effect of 1,4-naphthoquinone analogs on PTEN-P2/GFP cell proliferation (WST-1 cell viability, 24 h); conditions: Mus musculus, WST-1, medium with 10% FBS and DHT, read-out: PTEN-P2/GFP cell proliferation, percent of control
Protocol: Cells are grown in phenol red-free DMEM medium containing 10% FBS, 2 mM L-glutamine, 100 U/ml penicillin/100 μg/ml streptomycin, insulin-selenium-transferrin (5 μg/ml insulin), and DHT 10^−8M final. Androgen withdrawal is achieved by not adding DHT to the medium. Cells are maintained in a humidified incubator at 37° C. and 5% CO2. G418 (100 μg/ml) is added to maintain stable expression of H2B-GFP.
(§1) 100 microliters of PTEN-P2/GFP prostate cancer cells were plated at a density of 8000 cells/well in 96-well plates (triplicates) in growing medium containing 10% Fetal Bovine Serum and DHT. The next day, increasing concentrations of a 1,4-naphthoquinone analog (diluted from 10 mM DMSO stock solutions) were added. DMSO used as solvent for all analogs, was kept constant through the 96-well plates. The control consisted of DMSO alone. The cells were subsequently incubated for 24 hours at 37° C. and 5% CO2 in normal cell growth conditions. Cell viability was assessed by adding 9 μL/well of WST-1 reagent (Clontech), which measured mitochondrial activity of live cells. […] The incubation time was 3 hours at 37° C. Optical density of the cell samples was measured at 460 nm, by using plate reader Spectra Max 250 (Molecular Devices). The drug was determined to be cytotoxic when OD values show an inverse correlation with analog concentrations. The results are shown in TABLES 3.1-3.4, FIGS. 2A-2E, and FIGS. 3A-3D.

[2] = system: human breast cancer SKBR-3 cells; experiment: Dose response of 1,4-naphthoquinone analogs in human breast cancer cells SKBR-3 (WST-1, 24 h)
Protocol: as §1, with “human breast” for “PTEN-P2/GFP prostate”, “cancer SKBR-3” for “cancer”, “Serum, penicillin/streptomycin,” for “Serum”, “glutamine.” for “DHT.”, “concentrations.” for “concentrations. The results are shown in TABLES 3.1-3.4, FIGS. 2A-2E, and FIGS. 3A-3D.”

[3] = system: human fibrosarcoma HT1080 cells; experiment: Dose response of 1,4-naphthoquinone analogs in human fibrosarcoma cells HT1080 (WST-1, 24 h)
Protocol: as §1, with “human fibrosarcoma HT1080” for “PTEN-P2/GFP prostate cancer”, “Serum, penicillin/streptomycin,” for “Serum”, “glutamine.” for “DHT.”, “concentrations.” for “concentrations. The results are shown in TABLES 3.1-3.4, FIGS. 2A-2E, and FIGS. 3A-3D.”

Structure (SMILES)	activity at 2 µM [1] [%]	activity at 3 µM [1] [%]	activity at 4 µM [1] [%]	activity at 5 µM [1] [%]	activity at 6 µM [1] [%]	activity at 7 µM [1] [%]	activity at 10 µM [1] [%]	activity at 15 µM [1] [%]	activity at 25 µM [1] [%]	human SKBR-3 cell proliferation, percent of control ([2]; 1.2 μM)	human SKBR-3 cell proliferation, percent of control ([2]; 2.5 μM)	human SKBR-3 cell proliferation, percent of control ([2]; 5 μM)	human SKBR-3 cell proliferation, percent of control ([2]; 7.5 μM)	human SKBR-3 cell proliferation, percent of control ([2]; 10 μM)	human SKBR-3 cell proliferation, percent of control ([2]; 15 μM)	human SKBR-3 cell proliferation, percent of control ([2]; 20 μM)	proliferation of human fibrosarcoma HT1080 cells, percent of control ([3]; 1.2 μM)	proliferation of human fibrosarcoma HT1080 cells, percent of control ([3]; 2.5 μM)	proliferation of human fibrosarcoma HT1080 cells, percent of control ([3]; 5 μM)	proliferation of human fibrosarcoma HT1080 cells, percent of control ([3]; 7.5 μM)	further results
O=C1C=C(Oc2ccccc2)C(=O)c2ccccc21 [Analog F01, 2-phenoxy-1,4-naphthoquinone]	91.7	77.9	63.4	43.1	30.9	24.1	13.2	9.77	9.86	99.47% of control	105.05% of control	85.33% of control	61.15% of control	4.30% of control	1.90% of control	2.19% of control	85.21% of control	81.88% of control	66.22% of control	73.66% of control	proliferation of human fibrosarcoma HT1080 cells, percent of control ([3]; 10 μM): 69.05% of control; proliferation of human fibrosarcoma HT1080 cells, percent of control ([3]; 15 μM): 41.07% of control; proliferation of human fibrosarcoma HT1080 cells, percent of control ([3]; 20 μM): 18.29% of control
O=C1C=C(Oc2c(F)c(F)c(F)c(F)c2F)C(=O)c2ccccc21 [Analog F02, 2-(2,3,4,5,6-pentafluorophenoxy)-1,4-naphthoquinone]	97.9	94.8	93.3	90.3	82.6	74.3	47.6	28.7	12.3	107.66% of control	116.47% of control	107.37% of control	94.47% of control	75.45% of control	35.60% of control	3.02% of control	84.28% of control	82.46% of control	82.96% of control	76.72% of control	proliferation of human fibrosarcoma HT1080 cells, percent of control ([3]; 10 μM): 74.71% of control; proliferation of human fibrosarcoma HT1080 cells, percent of control ([3]; 15 μM): 65.17% of control; proliferation of human fibrosarcoma HT1080 cells, percent of control ([3]; 20 μM): 63.04% of control
CC(=O)Nc1ccc(OC2=CC(=O)c3ccccc3C2=O)cc1 [Analog F03, 2-(4-acetamidophenoxy)-1,4-naphthoquinone]	97.8	97.1	97.1	97.1	85	76.2	43	20	9.61	88.89% of control	87.44% of control	64.41% of control	36.88% of control	7.32% of control	1.24% of control	1.57% of control	81.33% of control	85.67% of control	74.59% of control	72.11% of control	proliferation of human fibrosarcoma HT1080 cells, percent of control ([3]; 10 μM): 75.09% of control; proliferation of human fibrosarcoma HT1080 cells, percent of control ([3]; 15 μM): 55.37% of control; proliferation of human fibrosarcoma HT1080 cells, percent of control ([3]; 20 μM): 38.21% of control
